From patent US20080248032A1, “COMPOSITIONS AND METHODS FOR PROTECTION AGAINST CARDIAC AND/OR CENTRAL NERVOUS SYSTEM TISSUE INJURY BY INHIBITING SPHINGOSINE-1-PHOSPHATE LYASE” (CHILDREN'S HOSPITAL & RESEARCH CENTER AT OAKLAND, priority 2006, published 2008)
Several values for one entry are separate records, joined by “and”; a condition that tells them apart may be missing. Equal values may be shown once.

Tests used:
bst1Δ cells = assay: Sphingosine sensitivity of yeast growth, bst1Δ strain; assay type: cell-based, Saccharomyces cerevisiae; conditions: concentrations as low as 10 μM sphingosine
Source text: (§1) A further test for SPL activity may be based upon functional complementation in the bst1Δ strain. It has been found, within the context of the present invention, that bst1Δ cells are highly sensitive to D-erythro-sphingosine. […] Such a level of sphingosine has no effect on the growth of wildtype cells.
(§2) A further test for SPL activity may be based upon functional complementation in the bst1Δ strain of Saccharomyces cerevisiae (Saba et al., 1997 J. Biol. Chem. 272:26087). It was been found, within the context of the presently disclosed embodiments, that bst1Δ cells were highly sensitive to D-erythro-sphingosine. […] Such a level of sphingosine had no effect on the growth of wildtype cells.

wildtype cells = assay: Sphingosine sensitivity of yeast growth, wildtype; assay type: cell-based, Saccharomyces cerevisiae; conditions: 10 μM sphingosine
Source text: as §1, §2

[1] = system: HEK294 cells expressing human SPL cDNA construct (hSPL); assay: Viability by MTT assay with doxorubicin, vector vs hSPL cells; assay type: cell-based; conditions: cells overexpressing SPL vs pcDNA3 vector; 24 h or 48 h; FIG. 1
Experimental: HEK294 cells expressing either pcDNA3 vector (PC) or a human SPL cDNA construct (hSPL) were incubated for 24 h (black bars) or 48 h (white bars) with doxorubicin, harvested and viability was determined by MTT assay. (Mosmann, J Immunol Methods, 1983, 65(1-2): 55-63).

SPL induced apoptosis = conditions: cells overexpressing SPL; cited from earlier work
[2] = system: ischemia/reperfusion (I/R) injury; assay: Langendorff isolated heart ischemia/reperfusion, hearts from THI-treated mice; assay type: in vivo, C57BL6 male mice
Experimental: C57BL6 male mice were given THI in the water supply for 3 days. […] This example describes use of an isolated perfused heart model system for assessing cardioprotective effects of SPL inhibitors. […] Platinum electrodes connected to a stimulus generator are used to pace hearts at 360 beats/min. […] The balloon is inserted through the left atrium into the left ventricle, and pressures are recorded continuously on a chart recorder. Coronary flow is measured by collecting effluent from the coronary sinus. Noninvasive measurement of LV size and function are performed using standard echocardiographic methods in unanesthetized mice. LV dimensions, fractional shortening and ejection fraction are calculated before and at the end of a treatment period, before sacrifice in all animals.

[3] = system: HEK293 kidney cells stably overexpressing human SPL (hSPL); assay: Viability by MTT assay with daunorubicin, vector vs hSPL cells; assay type: cell-based; conditions: hSPL cells vs vector control; FIG. 2
Experimental: In an additional experiment, HEK293 cells expressing human SPL or vector control were treated with daunorubicin (DNR), and viability was determined by MTT assay. This assay relies on reduction of 3-(4,5-dimethylthiazol-2-yl)-2,5-diphenyl tetrazolium bromide (MTT reagent) by viable cells.

**Q.** With CCCCCCCCCCCCC/C=C/[C@@H](O)[C@@H](N)CO [sphingosine, D-erythro-sphingosine] as the compound, how does the “growth of bst1Δ cells” value (bst1Δ cells) read?
**A.** Its value is “completely inhibit”.

**Q.** And the “growth of wildtype cells” value (wildtype cells)?
**A.** The value was “no effect”.

**Q.** With COc1cccc2c1C(=O)c1c(O)c3c(c(O)c1C2=O)C[C@@](O)(C(=O)CO)C[C@@H]3O[C@H]1C[C@H](N)[C@H](O)[C@H](C)O1 [doxorubicin] as the compound, how does the “cell survival in the presence of doxorubicin” value [1] read?
**A.** Its value is “significantly reduced”.

**Q.** For C[S+]([O-])c1ccc(-c2nc(-c3ccncc3)c(-c3ccc(F)cc3)[nH]2)cc1 (centres unmarked) [SB203580], which “effect on SPL induced apoptosis” value (SPL induced apoptosis) is on record?
**A.** The value was “attenuation”.

**Q.** Which “size of infarction (tissue uptake of tetrazolium red, TTC)” value ([2]; after 50 min ischemia, 40 min reperfusion, control heart 35%) does the source give for CC(=O)c1nc(C(O)C(O)C(O)CO)c[nH]1 (centres unmarked) [THI, 2-acetyl-4-tetrahydroxybutylimidazole] here?
**A.** Its value is 17%.

**Q.** And the “LVEDP (LV end-diastolic pressure)” value ([2]; after 50 min no-flow ischemia, 40 min reperfusion, control heart 52)?
**A.** Its value is 34 mmHg.

**Q.** What about the “LVDP % Recovery, Ave.” value ([2]; average of 3 animals) of the same compound?
**A.** Its value is 59.2%.

**Q.** What about the “LVDP Baseline, Ave.” value ([2]; average of 3 animals) of the same compound?
**A.** Its value is 133.0 mmHg.

**Q.** And the “LVDP Reperf. 40′, Ave.” value ([2]; average of 3 animals)?
**A.** The value was 79.7 mmHg.

**Q.** And the “LVDP (Left Ventricular Developed Pressure), Reperf. 40′” value ([2]; individual animals, 50 min no-flow ischemia, 40 min reperfusion)?
**A.** Its value is 52 mmHg and 88 mmHg and 99 mmHg.

**Q.** And the “LVDP % Recovery” value ([2]; individual animals, Reperf. 40′ vs Baseline)?
**A.** Its value is 42.6% and 64.2% and 70.7%.

**Q.** And the “LVDP (Left Ventricular Developed Pressure), Baseline” value ([2]; individual animals, before ischemia)?
**A.** Its value is 122 mmHg and 137 mmHg and 140 mmHg.

**Q.** With COc1cccc2c1C(=O)c1c(O)c3c(c(O)c1C2=O)C[C@@](O)(C(C)=O)C[C@@H]3O[C@H]1C[C@H](N)[C@H](O)[C@H](C)O1 [daunorubicin] as the compound, how does the “sensitivity to daunorubicin (viability, MTT)” value [3] read?
**A.** The value was “more sensitive”.

**Q.** With Cc1ccc(C(=O)Cn2c3c(sc2=N)CCCC3)cc1 [pifithrin α] as the compound, how does the “effect on SPL induced apoptosis” value (SPL induced apoptosis) read?
**A.** The value was “attenuation”.
